Values of other authors as cited in patent US20190008906A1, “COMPOSITIONS FOR MANAGEMENT OF WOUNDS, SKIN DISEASES, DEHYDRATION, CHRONIC DISEASES, AND RESPIRATORY DISEASES” (priority 2017, published 2019).

Conditions: laboratory animals, mainly when given orally

## CC1=CC(=O)C(C(C)C)=CC1=O [thymoquinone]
  safety in toxicity studies: quite safe
